The experiment deals with T1, PSMA (prostate-specific membrane antigen); glutamate carboxypeptidase II (GCPII) (Homo sapiens, UniProt Q04609).
T1 construct: gene FOLH1; native full-length type II transmembrane protein on intact LNCaP cells; 750 amino acids
Kind of experiment: competitive radioligand assay on LNCaP cells. The experiment is classed as cell-based. To be noted: competition with 0.75 nM [68Ga]Ga-PSMA-10, 45 min. The text has this:
competitive radioligand assay on LNCaP cells on PSMA (prostate-specific membrane antigen); glutamate carboxypeptidase II (GCPII)

T1 sequence (Q04609 whole entry): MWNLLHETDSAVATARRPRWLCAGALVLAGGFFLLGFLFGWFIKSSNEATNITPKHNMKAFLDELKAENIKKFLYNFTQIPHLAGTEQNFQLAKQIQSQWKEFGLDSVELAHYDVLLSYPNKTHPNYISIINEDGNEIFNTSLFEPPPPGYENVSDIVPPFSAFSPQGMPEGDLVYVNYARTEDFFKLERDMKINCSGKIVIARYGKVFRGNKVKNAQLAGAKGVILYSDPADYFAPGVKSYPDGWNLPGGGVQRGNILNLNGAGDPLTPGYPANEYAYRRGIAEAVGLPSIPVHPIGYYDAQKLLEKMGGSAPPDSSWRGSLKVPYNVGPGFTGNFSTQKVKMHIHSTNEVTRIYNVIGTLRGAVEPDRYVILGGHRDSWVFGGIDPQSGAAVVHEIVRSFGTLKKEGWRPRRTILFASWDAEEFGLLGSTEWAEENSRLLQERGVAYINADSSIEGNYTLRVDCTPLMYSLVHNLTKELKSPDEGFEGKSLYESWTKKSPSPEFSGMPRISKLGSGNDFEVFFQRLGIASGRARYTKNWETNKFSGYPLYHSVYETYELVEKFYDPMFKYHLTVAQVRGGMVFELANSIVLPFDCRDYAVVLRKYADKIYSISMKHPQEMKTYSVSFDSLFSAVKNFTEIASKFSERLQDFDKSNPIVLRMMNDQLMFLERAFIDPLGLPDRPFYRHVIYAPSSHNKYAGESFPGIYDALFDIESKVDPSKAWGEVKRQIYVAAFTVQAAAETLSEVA

For the molecule `O=C(O)CC[C@H](NC(=O)N[C@@H](CCCCNC(=O)[C@H](Cc1ccc2ccccc2c1)NC(=O)[C@H]1CC[C@H](CNC(=O)CN2CCN(CC(=O)O)CCN(CC(=O)O)CCN(CC(=O)O)CC2)CC1)C(=O)O)C(=O)O` [PSMA-617], for the setting “reference compound, footnote: IC50 values can be found in the earlier paper of the same first author (ref 48), cited from earlier work”, the inhibition constant Ki is 6.9 ± 1.3 nM.

Molecule `NCCCC[C@H](NC(=O)CN1CCN(CC(=O)O)CCN(CC(=O)O)CCN(CC(=O)O)CC1)C(=O)NC[C@H]1CC[C@H](C(=O)N[C@@H](Cc2ccc3ccccc3c2)C(=O)NCCCC[C@H](NC(=O)N[C@@H](CCC(=O)O)C(=O)O)C(=O)O)CC1` [compound 12, DOTA-L-Lys-PSMA-617] yielded an inhibition constant Ki (metal-free ligand) of 19.7 ± 3.3 nM.

With `O=C(O)CC[C@H](NC(=O)N[C@@H](CCCCNC(=O)[C@H](Cc1ccc2ccccc2c1)NC(=O)[C@H]1CC[C@H](CNC(=O)[C@H](CCCCNc2c(NCCC(O)(P(=O)(O)O)P(=O)(O)O)c(=O)c2=O)NC(=O)CN2CCN(CC(=O)O)CCN(CC(=O)O)CCN(CC(=O)O)CC2)CC1)C(=O)O)C(=O)O` [compound 13, DOTA-L-Lys(SA.Pam)-PSMA-617], the Ki (metal-free ligand) stood at 52.6 ± 3.5 nM.

The record behind these values is publication PMC11440839, “DOTA Conjugate of Bisphosphonate and PSMA-Inhibitor: A Promising Combination for Therapy of Prostate Cancer Related Bone Metastases” (Frontiers in Nuclear Medicine, 2022).
